Legend:
Format in all cases: biochemical
Aurora-A = target: T1, Aurora-A (Homo sapiens, UniProt O14965); test: Radiometric protein kinase assay, Aurora-A; details: 1 μM ATP; read-out: Inhibitory activity (IC50:μM) Aurora-A
T1 construct: host or cells: Sf9 insect cells (baculovirus)
T1 sequence (O14965 1-403): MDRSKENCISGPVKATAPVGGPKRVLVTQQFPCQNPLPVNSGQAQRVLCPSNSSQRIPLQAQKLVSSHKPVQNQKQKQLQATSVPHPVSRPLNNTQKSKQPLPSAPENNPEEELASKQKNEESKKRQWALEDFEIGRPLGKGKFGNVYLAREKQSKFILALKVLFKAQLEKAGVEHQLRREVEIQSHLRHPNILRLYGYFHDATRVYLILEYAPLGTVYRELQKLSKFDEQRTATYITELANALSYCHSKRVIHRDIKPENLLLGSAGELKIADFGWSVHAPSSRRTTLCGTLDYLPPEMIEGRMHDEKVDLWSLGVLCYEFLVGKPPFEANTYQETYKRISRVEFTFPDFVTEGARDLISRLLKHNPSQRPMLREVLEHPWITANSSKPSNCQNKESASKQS
Description: (§1) All protein kinases were expressed in Sf9 insect cells as human recombinant GST-fusion proteins or His-tagged proteins by means of the baculovirus expression system. Kinases were purified by affinity chromatography using either GSH-agarose (Sigma) or Ni-NTH-agarose (Qiagen). The purity of each kinase was checked by SDS-PAGE/silver staining and the identity of each kinase was verified by western blot analysis with kinase specific antibodies or by mass spectroscopy.
(§2) A radiometric protein kinase assay (^33PanQinase® Activity Assay) was used for measuring the kinase activity of the 24 protein kinases. All kinase assays were performed in 96-well FlashPlates™ from Perkin Elmer (Boston, Mass., USA) in a 50 μl reaction volume. The reaction cocktail was pipetted in 4 steps in the following order: • 20 μl of assay buffer • 5 μl of ATP solution (in H2O) • 5 μl of test compound (in 10% DMSO) • 10 μl of substrate/10 […] of enzyme solution (premixed)
(§3) The assay for all enzymes contained 60 mM HEPES-NaOH, pH 7.5, 3 mM MgCl2, 3 mM MnCl2, 3 μM Na-orthovanadate, 1.2 mM DTT, 50 μg/ml PEG20000, 1 μM [γ-^33P]-ATP (approx. 5×10^05 cpm per well).
(§4) For the 24 kinase assays, the following amounts of enzyme and substrate were used per well:
(§5) The reaction cocktails were incubated at 30° C. for 80 minutes. The reaction was stopped with 50 μl of 2% (v/v) H3PO4, plates were aspirated and washed two times with 200 μl of 0.9% (w/v) NaCl or 200 μl H2O. Incorporation of ^33Pi was determined with a microplate scintillation counter (Microbeta Trilux, Wallac).
(§6) The median value of the counts in column 1 (n=8) of each assay plate was defined as “low control”. This value reflects unspecific binding of radioactivity to the plate in the absence of a protein kinase but in the presence of the substrate. The median value of the counts in column 7 of each assay plate (n=8) was taken as the “high control”, i.e. full activity in the absence of any inhibitor. The difference between high and low control was taken as 100% activity.
(§7) As part of the data evaluation the low control value from a particular plate was subtracted from the high control value as well as from all 80 “compound values” of the corresponding plate. The residual activity (in %) for each well of a particular plate was calculated by using the following formula: Res. Activity (%)=100×[(cpm of compound−low control)/(high control−low control)]
(§8) The residual activities for each concentration and the compound IC50 values were calculated using Quattro Workflow V2.1.0.0 (Quattro Research GmbH, Munich, Germany; www.quattro-research.com). The model used was “Sigmoidal response (variable slope)” with parameters “top” fixed at 100% and “bottom” at 0%.

IGF1-R = target: T2, IGF1-R (Homo sapiens, UniProt P08069); test: Radiometric protein kinase assay, IGF1-R; details: 1 μM ATP; read-out: Inhibitory activity (IC50:μM) IGF1-R
T2 construct: host or cells: Sf9 insect cells (baculovirus)
Description: as §1, §2, §3, §4, §5, §6, §7, §8

SAK = target: T3, SAK (Homo sapiens, UniProt O00444); test: Radiometric protein kinase assay, SAK; details: 1 μM ATP; read-out: Inhibitory activity (IC50:μM) SAK
T3 construct: host or cells: Sf9 insect cells (baculovirus)
T3 sequence (O00444 1-970): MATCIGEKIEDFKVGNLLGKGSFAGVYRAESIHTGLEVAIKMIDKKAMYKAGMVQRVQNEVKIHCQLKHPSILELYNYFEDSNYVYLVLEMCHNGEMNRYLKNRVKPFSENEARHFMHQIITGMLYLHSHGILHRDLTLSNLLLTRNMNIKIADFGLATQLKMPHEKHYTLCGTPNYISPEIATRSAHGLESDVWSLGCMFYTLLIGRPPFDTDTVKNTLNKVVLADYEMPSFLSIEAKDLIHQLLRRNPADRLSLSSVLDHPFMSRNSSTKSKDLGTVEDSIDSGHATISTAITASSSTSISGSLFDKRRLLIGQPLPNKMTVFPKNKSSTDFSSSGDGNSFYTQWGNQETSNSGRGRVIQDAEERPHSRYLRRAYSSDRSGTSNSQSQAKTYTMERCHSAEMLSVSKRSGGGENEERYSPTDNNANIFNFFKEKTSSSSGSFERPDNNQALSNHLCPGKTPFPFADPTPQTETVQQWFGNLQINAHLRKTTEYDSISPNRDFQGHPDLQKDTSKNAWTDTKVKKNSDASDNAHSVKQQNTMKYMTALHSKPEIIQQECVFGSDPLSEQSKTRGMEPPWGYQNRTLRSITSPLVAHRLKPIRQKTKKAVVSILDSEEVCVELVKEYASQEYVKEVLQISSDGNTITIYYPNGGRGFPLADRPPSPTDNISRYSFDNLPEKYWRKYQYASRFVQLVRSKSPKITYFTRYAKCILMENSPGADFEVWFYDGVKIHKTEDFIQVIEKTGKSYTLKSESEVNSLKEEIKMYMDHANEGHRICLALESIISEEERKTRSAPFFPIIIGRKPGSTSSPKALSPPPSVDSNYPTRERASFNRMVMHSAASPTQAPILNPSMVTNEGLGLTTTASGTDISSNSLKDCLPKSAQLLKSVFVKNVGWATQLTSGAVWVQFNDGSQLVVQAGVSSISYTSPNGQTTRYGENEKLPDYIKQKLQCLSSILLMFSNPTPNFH
Description: as §1, §2, §3, §4, §5, §6, §7, §8

CDK4/CycD1 = target: T4, CDK4/CycD1 (Homo sapiens, UniProt P11802); test: Radiometric protein kinase assay, CDK4/CycD1; details: 1 μM ATP; read-out: Inhibitory activity (IC50:μM) CDK4/CycD1
T4 construct: host or cells: Sf9 insect cells (baculovirus)
Description: as §1, §2, §3, §4, §5, §6, §7, §8

Aurora-B = target: T5, Aurora-B (Homo sapiens, UniProt Q96GD4); test: Radiometric protein kinase assay, Aurora-B; details: 1 μM ATP; read-out: Inhibitory activity (IC50:μM) Aurora-B
T5 construct: host or cells: Sf9 insect cells (baculovirus)
Description: as §1, §2, §3, §4, §5, §6, §7, §8

TIE2 = target: T6, TIE2 (Homo sapiens, UniProt Q02763); test: Radiometric protein kinase assay, TIE2; details: 1 μM ATP; read-out: Inhibitory activity (IC50:μM) TIE2
T6 construct: host or cells: Sf9 insect cells (baculovirus)
Description: as §1
as §2, with “(premixed) […]” for “(premixed)”
(§9) The reaction cocktails were incubated at 30° C. for 80 minutes. […] Incorporation of ^33Pi was determined with a microplate scintillation counter (Microbeta Trilux, Wallac).
(§10) The median value of the counts in column 1 (n=8) of each assay plate was defined as “low control”. This value reflects unspecific binding of radioactivity to the plate in the absence of a protein kinase but in the presence of the substrate. […]
as §7
The residual activities for each concentration and the compound IC50 values were calculated using Quattro Workflow V2.1.0.0 (Quattro Research GmbH, Munich, Germany; www.quattro-research.com). […]

ERBB2 = target: T7, ERBB2 (Homo sapiens, UniProt P04626); test: Radiometric protein kinase assay, ERBB2; details: 1 μM ATP; read-out: Inhibitory activity (IC50:μM) ERBB2
T7 construct: host or cells: Sf9 insect cells (baculovirus)
Description: as §1
A radiometric protein kinase assay (^33PanQinase® Activity Assay) was used for measuring the kinase activity of the 24 protein kinases. […]
as §9, §10
As part of the data evaluation the low control value from a particular plate was subtracted from the high control value as well as from all 80 “compound values” of the corresponding plate. The residual activity (in %) for each well of a particular plate was calculated by using the following formula: Res. Activity (%)=100×[(cpm of compound−low control)/(high control−low control)] […]

T4 sequence (P11802 whole entry): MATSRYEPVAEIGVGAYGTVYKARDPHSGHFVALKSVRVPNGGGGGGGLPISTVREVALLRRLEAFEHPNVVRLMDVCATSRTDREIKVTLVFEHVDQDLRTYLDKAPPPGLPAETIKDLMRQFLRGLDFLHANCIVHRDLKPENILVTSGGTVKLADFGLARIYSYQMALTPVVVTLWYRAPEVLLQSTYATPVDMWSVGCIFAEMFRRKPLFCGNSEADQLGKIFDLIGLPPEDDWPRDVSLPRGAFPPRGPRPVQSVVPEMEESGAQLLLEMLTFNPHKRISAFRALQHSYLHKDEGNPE
T4 sequence (P24385 whole entry partner): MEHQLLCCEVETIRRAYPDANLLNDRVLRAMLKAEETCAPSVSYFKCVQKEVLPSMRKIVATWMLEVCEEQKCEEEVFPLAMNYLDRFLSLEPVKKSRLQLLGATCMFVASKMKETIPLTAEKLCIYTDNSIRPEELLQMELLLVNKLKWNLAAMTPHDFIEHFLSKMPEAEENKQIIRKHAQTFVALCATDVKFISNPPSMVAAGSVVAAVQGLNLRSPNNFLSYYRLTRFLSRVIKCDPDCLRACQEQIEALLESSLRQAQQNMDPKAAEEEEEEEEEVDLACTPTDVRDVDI
T2 sequence (P08069 31-1367): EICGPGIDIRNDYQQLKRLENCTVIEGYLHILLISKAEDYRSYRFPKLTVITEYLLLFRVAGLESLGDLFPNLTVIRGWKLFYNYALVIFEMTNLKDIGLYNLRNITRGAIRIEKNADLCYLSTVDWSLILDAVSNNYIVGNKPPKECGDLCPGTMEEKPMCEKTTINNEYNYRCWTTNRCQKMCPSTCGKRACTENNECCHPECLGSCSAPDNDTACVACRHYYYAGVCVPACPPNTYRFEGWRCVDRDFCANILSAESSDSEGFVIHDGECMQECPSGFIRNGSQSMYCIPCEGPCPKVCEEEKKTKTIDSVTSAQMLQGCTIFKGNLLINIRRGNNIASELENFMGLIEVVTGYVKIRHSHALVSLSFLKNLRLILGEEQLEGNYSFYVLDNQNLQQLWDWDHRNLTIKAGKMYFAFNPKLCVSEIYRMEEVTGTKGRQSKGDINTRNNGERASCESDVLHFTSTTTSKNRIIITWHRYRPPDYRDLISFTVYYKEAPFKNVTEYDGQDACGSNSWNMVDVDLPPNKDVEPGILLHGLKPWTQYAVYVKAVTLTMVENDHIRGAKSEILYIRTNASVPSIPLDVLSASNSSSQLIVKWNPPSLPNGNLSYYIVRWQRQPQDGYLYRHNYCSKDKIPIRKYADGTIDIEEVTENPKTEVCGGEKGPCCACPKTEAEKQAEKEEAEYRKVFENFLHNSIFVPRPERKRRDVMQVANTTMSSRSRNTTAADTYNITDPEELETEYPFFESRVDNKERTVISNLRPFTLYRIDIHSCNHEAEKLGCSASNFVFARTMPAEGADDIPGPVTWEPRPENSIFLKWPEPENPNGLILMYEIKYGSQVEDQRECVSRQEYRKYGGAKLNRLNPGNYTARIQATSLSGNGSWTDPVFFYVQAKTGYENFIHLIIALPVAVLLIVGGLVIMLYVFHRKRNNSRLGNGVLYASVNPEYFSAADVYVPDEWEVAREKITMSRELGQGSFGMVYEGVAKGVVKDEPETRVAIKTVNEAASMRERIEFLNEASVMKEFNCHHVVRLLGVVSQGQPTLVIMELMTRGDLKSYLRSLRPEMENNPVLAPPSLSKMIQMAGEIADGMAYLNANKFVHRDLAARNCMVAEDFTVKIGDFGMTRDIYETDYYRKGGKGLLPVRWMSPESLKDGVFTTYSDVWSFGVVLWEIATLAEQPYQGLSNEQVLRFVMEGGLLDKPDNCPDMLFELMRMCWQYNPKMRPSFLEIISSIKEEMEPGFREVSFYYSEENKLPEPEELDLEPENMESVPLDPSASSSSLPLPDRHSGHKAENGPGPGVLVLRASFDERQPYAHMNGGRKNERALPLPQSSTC
T5 sequence (Q96GD4 whole entry): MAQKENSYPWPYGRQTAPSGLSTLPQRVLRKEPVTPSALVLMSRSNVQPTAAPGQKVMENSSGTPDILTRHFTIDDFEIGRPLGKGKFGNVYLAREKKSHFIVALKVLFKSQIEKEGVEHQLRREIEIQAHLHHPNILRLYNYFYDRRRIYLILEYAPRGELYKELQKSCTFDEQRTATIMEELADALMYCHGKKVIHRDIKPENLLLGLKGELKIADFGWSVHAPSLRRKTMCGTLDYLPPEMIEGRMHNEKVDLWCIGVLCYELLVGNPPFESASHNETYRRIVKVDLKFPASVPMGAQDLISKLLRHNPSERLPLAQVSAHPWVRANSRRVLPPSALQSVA
T6 sequence (Q02763 23-1124): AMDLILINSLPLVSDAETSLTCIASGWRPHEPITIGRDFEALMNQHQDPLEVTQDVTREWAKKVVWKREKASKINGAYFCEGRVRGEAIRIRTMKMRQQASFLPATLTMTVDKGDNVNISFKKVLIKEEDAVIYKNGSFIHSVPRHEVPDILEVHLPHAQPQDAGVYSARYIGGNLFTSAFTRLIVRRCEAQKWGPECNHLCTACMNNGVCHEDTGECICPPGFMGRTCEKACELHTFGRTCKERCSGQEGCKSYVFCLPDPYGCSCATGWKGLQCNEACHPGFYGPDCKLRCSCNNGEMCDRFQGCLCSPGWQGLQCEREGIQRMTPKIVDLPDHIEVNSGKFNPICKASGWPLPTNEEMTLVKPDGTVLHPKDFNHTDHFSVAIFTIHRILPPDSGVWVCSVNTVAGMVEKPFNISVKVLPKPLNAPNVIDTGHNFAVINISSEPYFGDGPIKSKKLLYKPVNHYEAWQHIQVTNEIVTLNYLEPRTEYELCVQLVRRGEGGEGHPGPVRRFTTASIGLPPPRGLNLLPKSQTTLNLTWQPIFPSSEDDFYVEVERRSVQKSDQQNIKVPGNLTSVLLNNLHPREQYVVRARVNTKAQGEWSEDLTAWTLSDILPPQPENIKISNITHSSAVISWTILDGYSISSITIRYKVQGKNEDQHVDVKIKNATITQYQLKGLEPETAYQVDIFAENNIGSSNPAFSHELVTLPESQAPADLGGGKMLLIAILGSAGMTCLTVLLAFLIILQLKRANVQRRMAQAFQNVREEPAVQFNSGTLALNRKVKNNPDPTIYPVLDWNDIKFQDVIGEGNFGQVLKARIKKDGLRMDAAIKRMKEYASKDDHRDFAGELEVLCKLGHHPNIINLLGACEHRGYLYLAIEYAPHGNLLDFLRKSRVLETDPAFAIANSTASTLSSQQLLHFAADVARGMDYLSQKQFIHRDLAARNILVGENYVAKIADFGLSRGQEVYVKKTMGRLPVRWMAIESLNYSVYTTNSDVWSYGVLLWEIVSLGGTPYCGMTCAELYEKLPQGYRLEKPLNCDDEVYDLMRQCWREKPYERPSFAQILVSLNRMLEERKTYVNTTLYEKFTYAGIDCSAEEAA
T7 sequence (P04626 23-1255): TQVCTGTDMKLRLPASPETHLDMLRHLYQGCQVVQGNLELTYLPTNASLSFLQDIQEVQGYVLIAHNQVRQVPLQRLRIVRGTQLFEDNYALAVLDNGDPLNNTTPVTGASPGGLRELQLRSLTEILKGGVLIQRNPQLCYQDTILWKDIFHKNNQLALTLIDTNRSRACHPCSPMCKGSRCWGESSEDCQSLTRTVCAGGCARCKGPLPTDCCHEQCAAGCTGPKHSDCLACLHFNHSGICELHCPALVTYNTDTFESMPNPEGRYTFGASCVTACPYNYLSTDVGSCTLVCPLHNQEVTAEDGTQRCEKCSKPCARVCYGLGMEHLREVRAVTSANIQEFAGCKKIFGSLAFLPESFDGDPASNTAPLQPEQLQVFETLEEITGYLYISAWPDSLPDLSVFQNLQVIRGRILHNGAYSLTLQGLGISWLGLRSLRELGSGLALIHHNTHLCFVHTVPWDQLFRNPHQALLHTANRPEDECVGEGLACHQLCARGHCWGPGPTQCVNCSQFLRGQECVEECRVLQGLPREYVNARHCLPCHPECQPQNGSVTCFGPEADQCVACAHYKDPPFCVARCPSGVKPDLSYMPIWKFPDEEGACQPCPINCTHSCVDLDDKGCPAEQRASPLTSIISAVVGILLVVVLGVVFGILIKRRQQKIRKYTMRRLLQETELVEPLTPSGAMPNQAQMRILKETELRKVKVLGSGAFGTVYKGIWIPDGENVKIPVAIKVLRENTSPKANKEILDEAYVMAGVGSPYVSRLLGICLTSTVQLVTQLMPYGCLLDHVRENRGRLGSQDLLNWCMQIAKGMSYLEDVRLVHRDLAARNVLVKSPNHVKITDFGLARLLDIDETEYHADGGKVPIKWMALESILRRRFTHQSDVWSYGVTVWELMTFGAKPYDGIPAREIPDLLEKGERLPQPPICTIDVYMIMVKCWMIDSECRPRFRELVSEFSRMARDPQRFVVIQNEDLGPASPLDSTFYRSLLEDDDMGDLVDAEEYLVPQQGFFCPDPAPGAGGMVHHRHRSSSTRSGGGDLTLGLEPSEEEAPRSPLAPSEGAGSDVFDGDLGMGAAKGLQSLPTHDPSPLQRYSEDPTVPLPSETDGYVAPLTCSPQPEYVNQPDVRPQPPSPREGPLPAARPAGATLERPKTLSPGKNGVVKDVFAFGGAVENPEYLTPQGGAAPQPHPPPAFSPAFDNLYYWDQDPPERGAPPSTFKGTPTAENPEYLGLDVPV

| IC50 (Aurora-A) [µM] | IC50 (IGF1-R) [µM] | IC50 (SAK) [µM] | IC50 (CDK4/CycD1) [µM] | IC50 (Aurora-B) [µM] | IC50 (TIE2) [µM] | IC50 (ERBB2) [µM] | SMILES |
| --- | --- | --- | --- | --- | --- | --- | --- |
| 14 | 16 | 17 | 50 | 16 | 16 | 16 | COC1CC/C=C/C[C@H](c2ccccc2)OC(=O)c2c(O)cc(O)c(Cl)c2CC(=O)C1 (some centres unmarked) [A-2] |
|  | 21 | 17 | 37 | 16 | 25 |  | O=C1/C=C/CCC2OC2C[C@@H](Cc2ccccc2)OC(=O)c2c(O)cc(O)cc2C1 (some centres unmarked) [A-6] |
| 30 | 13 | 19 | 48 | 36 |  |  | CC(C)[C@@H]1CC2OC2CC/C=C/C(=O)Cc2c(Cl)c(O)cc(O)c2C(=O)O1 (some centres unmarked) [A-4] |
|  | 19 | 25 | 30 | 14 | 15 | 24 | O=C1Cc2c(Cl)c(O)cc(O)c2C(=O)O[C@H](c2ccccc2)C/C=C/CCC(Cl)C1 (some centres unmarked) [A-3] |
| 47 |  | 20 | 45 |  |  |  | O=C1/C=C/CCC2OC2C[C@H](c2ccccc2)OC(=O)c2c(O)cc(O)c(Cl)c2C1 (some centres unmarked) [A-5] |

Source: patent US8450305B2, “Macrocyclic compounds useful as inhibitors of kinases and HSP90” (Universite de Strasbourg, priority 2006, dated 2013)
